Laboratory results published in patent EP3263567A1, “CARBOXAMIDE-SUBSTITUTED PYRAZOLES AND TRI(HETERO)ARYL-PYRAZOLES FOR USE IN METHODS OF TREATING AND / OR PREVENTING CARDIOVASCULAR DISEASES AND / OR COMORBIDITIES THEREOF” (AiCuris Anti-infective Cures GmbH, priority 2016, dated 2018).
“Also recorded” adds a separate entry of the source.

Columns and labels:
Nav1.5 = target: T1, Nav1.5 (Homo sapiens, UniProt Q14524); test: Whole-cell patch-clamp, Nav1.5 currents in stably transfected CHO cells; assay type: cell-based
T1 construct: expressed in transfected cells; host or cells: CHO (ATCC CCL-61), stably transfected; selection with Geneticin and Puromycin
Procedure: [drawing 92] i.e. 4-[5-[3-Chloro-5-(trifluoromethoxy) phenyl]-1-(pyridin-3-yl)-1H-pyrazol-3-yl]-5,6-dihydro-7H-pyrrolo[3,4-d]pyrimidin-7-one, was tested for its effects on human Nav1.5, Cav1.2, Kv1.5, and HCN4 currents recorded from stably transfected CHO cells. The effect of four concentrations of this compound on these currents was investigated.
The whole-cell patch-clamp technique was used to investigate the effect of Compound A on the currents of Nav1.5, Kv1.5, Cav1.2 and HCN4 channels, expressed in CHO cells (ATCC, CCL-61). Compound A was tested at concentrations of 200 nM, 600 nM, 2000 nM and 6000 nM. For all ion channels 0.1% DMSO was used as vehicle and ZD7288 as suitable blockers were applied to assure accuracy of the method. The selection antibiotics can be dervied from the Table below:
Concentrations of 200 nM, 600 nM, 2000 nM and 6000 nM of Compound A were tested. […]
The 35 mm culture dishes upon which cells were seeded at a density allowing single cells to be recorded were placed on the dish holder of the microscope and continuously perfused (at approximately 1 mL/min) with the bath solution described in section 4.7. […]
As soon as a stable seal could be established outward tail currents were measured upon pulses described in the Table below: […]
Values in Ampere (A) of the peak amplitudes of outward tail currents were generated for each voltage step. […] The recorded current amplitudes at the steady state level of current inhibition were compared to those from control conditions measured in the pre-treatment phase of the same cell. The amount of current block was calculated as percentage of control. To determine whether the observed current inhibition was due to Compound A-interaction with the respective ion channel or due to current rundown, these residual currents were compared to those measured in vehicle treated cells. Data from at least two individual experiments were collected and the corresponding mean values and standard deviations were calculated. […]

pKa of compound A = assay type: physicochemical
Beagle dogs [1] = test: 4-week beagle dog experiment, non-invasive telemetry (ECG, heart rate, blood pressure); assay type: in vivo
Procedure: (§1) [drawing 93] i.e. 4-[5-[3-Chloro-5-(trifluoromethoxy)phenyl]-1-(pyridin-3-yl)-1H-pyrazol-3-yl]-5,6-dihydro-7H-pyrrolo[3,4-d]pyrimidin-7-one, was administered in a 4-week beagle dog experiment with integrated non-invasive telemetric electrocardiography (ECG) measurements for determining its cardiovascular effects; specifically its effects on the heart rate.
(§2) 32 Beagle dogs (16 males and 16 females) with parameters in the normal range were tested for cardiovascular effects of Compound A administration and divided into the study groups indicated below.
(§3) The test compound A-formulation of the appropriate concentration was administered by oral administration at a constant administration volume/kg b.w.
(§4) • Groups 1 and 4: Twice daily at an 8-hour interval for 28 consecutive days. • Groups 2 to 3: Once daily for 28 consecutive days.
Telemetry parameters were monitored at the following times: • Predose and in test week 4: All 32 animals included in this study. • At the end of the recovery period in test week 8: All 8 recovery animals.
Parameters were monitored telemetrically with the EMKA Technologies System continuously starting approximately 24 hours prior to the first treatment (baseline; pre-dose values) and for approximately 24 hours in test week 4 and at the end of the recovery period in test week 8. The dogs were habituated and trained for wearing the jackets equipped with the telemetry transmitter and air-filled cuff placed on their tail.
The following telemetry parameters were determined: • Peripheral arterial blood pressure in the tail (blood flow occlusion using an air filled cuff) • Heart rate • Electrocardiography (QRS, QT, PQ, RR) • Respiration (respiratory inductive plethysmography; belts were placed around the thorax and abdomen) • Skin temperature • Physical activity.
The report includes the data recorded at the following intervals: • Pre-dose: Every 4 hours after start of recording (7 (Baseline; approx. 24 hours) tracings per animal) • Test week 4: Approx. 0, 1, 2, 6, and 24 hours after (Start of treatment to 24 hours post the 1 st administration of the day treatment relating to first dosing of the day) • At the end of the recovery period in Every 4 hours after start of recording (7 test week 8: tracings per animal)
The electrocardiogram was visually assessed for any abnormalities of the electrical complexes (i.e. arrhythmias, interval prolongations). In addition, the following parameters were evaluated:
Furthermore, the QTc-values were calculated according to the following Bazett-formula: QTc = (QT [sec])/(sqrt((R−R distance[sec]))) [formula]

Beagle dogs [2] = test: 4-week beagle dog experiment, toxicity observations; assay type: in vivo
Procedure: as §1, §2
Duration of study: • 4 acclimatization weeks • 4 test weeks • 4 additional test weeks for the animals scheduled for the recovery period.
as §3, §4
The animals were observed individually before and after dosing at each time of dosing for any signs of behavioural changes, reaction to treatment or illness.
Kennel side observations included skin/fur, eyes, mucous membranes, respiratory and circulatory systems, somatomotor activity and behaviour patterns. The onset, intensity, and duration of any signs observed were recorded.

[3] = 3, 10 or 2 x 50 mg/kg b.w./day oral, test week 4

T1 sequence (Q14524 whole entry): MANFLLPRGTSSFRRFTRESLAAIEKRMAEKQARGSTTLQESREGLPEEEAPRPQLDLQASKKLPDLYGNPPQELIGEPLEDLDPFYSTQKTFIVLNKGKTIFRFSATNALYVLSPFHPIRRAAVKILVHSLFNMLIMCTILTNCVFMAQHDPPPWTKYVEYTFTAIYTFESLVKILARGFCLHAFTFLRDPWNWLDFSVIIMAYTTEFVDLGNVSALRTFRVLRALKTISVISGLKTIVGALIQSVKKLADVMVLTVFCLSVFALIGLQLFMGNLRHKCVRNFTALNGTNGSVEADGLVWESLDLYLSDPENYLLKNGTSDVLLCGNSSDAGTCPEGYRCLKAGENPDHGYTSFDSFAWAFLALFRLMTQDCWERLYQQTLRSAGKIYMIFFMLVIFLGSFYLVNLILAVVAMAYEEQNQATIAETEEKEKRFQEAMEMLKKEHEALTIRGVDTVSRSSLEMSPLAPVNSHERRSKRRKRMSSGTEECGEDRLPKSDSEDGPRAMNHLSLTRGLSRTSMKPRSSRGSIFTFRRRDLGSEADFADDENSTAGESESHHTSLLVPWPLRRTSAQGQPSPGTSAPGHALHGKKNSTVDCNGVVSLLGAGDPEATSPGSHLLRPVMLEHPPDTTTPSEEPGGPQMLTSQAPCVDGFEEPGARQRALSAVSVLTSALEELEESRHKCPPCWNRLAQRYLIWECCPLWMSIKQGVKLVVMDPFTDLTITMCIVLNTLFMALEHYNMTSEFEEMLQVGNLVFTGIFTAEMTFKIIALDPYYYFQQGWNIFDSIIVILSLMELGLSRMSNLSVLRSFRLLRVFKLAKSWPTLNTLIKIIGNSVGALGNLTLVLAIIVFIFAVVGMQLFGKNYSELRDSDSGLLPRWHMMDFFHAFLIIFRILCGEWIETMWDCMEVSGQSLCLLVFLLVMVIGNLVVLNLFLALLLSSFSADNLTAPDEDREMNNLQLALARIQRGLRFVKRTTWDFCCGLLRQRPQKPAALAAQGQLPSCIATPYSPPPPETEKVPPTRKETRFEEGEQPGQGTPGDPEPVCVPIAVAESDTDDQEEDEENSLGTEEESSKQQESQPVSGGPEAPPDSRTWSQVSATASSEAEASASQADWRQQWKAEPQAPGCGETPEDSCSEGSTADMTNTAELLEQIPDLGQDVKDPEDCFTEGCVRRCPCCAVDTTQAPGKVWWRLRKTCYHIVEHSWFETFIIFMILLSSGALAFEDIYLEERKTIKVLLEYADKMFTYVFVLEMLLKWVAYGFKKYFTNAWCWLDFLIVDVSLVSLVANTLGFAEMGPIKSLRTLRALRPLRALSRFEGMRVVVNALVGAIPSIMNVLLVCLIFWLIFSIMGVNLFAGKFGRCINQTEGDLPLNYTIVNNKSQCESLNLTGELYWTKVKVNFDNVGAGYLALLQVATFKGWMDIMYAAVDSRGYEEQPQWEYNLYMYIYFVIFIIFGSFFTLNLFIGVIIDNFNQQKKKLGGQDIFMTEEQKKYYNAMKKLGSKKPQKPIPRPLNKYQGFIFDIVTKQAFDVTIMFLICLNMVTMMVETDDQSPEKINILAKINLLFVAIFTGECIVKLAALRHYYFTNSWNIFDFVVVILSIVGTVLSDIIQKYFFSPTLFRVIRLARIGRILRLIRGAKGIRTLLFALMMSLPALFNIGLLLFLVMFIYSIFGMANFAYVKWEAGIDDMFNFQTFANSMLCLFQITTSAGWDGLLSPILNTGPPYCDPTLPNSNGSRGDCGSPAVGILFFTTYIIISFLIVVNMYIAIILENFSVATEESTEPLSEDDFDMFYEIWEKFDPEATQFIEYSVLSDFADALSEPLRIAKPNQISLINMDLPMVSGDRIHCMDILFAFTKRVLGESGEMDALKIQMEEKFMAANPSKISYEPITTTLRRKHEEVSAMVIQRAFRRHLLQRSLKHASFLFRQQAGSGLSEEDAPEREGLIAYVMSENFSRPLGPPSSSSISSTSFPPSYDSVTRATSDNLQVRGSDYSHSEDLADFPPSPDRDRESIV

SMILES: O=C1NCc2c1ncnc2-c1cc(-c2cc(Cl)cc(OC(F)(F)F)c2)n(-c2cccnc2)n1 [Compound A, 4-[5-[3-Chloro-5-(trifluoromethoxy)phenyl]-1-(pyridin-3-yl)-1H-pyrazol-3-yl]-5,6-dihydro-7H-pyrrolo[3,4-d]pyrimidin-7-one]
- reduction of the current amplitude (Nav1.5, fast inactivated state) (Nav1.5; at ≤ 6 µM): more than 30%
- IC50 (Nav1.5; highest concentration tested 6,000 nM, read-out: IC50 (Nav1.5, fast inactivated state)): > 6 µM
- interaction with ion channels of Nav (Nav1.5; summary statement): do not interact with other ion channels of Nav, Kav, and Cav substantially
- pKa (pKa of compound A): 2.3
- start of telemetric changes after last administration (Beagle dogs [1]; 1st evaluated telemetric time-point, test week 4): ≤ 5 min
- effect on QTc interval (Beagle dogs [1]; 3, 10 or 2 x 50 mg/kg b.w./day oral, 4 weeks): no adverse effects on QTc-interval; also recorded: no effect on QTc; also recorded: No influence
- prolonged QT interval (Beagle dogs [1]; [3]): ≤ 50%
- prolonged RR interval (Beagle dogs [1]; [3]): ≤ 140%
- decreased heart rate (Beagle dogs [1]; 3, 10 or 2 x 50 mg/kg b.w./day oral, test week 4, compared to control group): ≤ 50%
- severe bradycardia or atrial fibrillation (Beagle dogs [1]; beagle dog study): no signs of too much slowing of the heart rate (severe bradycardia) nor atrial fibrillation
- telemetric changes lasting until, after administration (Beagle dogs [1]; end of telemetric measurement, test week 4): 24 h
- influence on systolic and diastolic blood pressures (Beagle dogs [1]; oral, 4 weeks): No influence
- recovery of telemetric changes after 4-week treatment-free recovery period (Beagle dogs [1]; week 8, high dose group 2 x 50 mg/kg b.w./day): full recovery; also recorded: completely subsided
- mortality (Beagle dogs [2]; 3, 10 or 2 x 50 mg/kg b.w./day for 4 weeks, treatment and recovery period): None
- signs of systemic intolerance (behaviour, external appearance, faeces) (Beagle dogs [2]; 3, 10 or 2 x 50 mg/kg b.w./day oral for 4 weeks and 4-week recovery): No compound A-related signs of systemic intolerance
- eyes and auditory acuity (Beagle dogs [2]; 4 weeks): No changes or adverse effects
- haematology, clinical biochemistry, urinalysis, ophthamological and auditory examination, organ weights, bone marrow, histopathology (Beagle dogs [2]; 4 weeks): No compound A-related influences
- macroscopic inspection at necropsy (Beagle dogs [2]; 4 weeks): did not reveal any morphological changes
- histopathological examination (Beagle dogs [2]; end of main study and of 4-week recovery period): did not reveal any Compound A-related morphological changes
- body weight and body weight gain; food and drinking water consumption (Beagle dogs [2]; treatment period): No compound A-related influence
